How the values were obtained:
[1] = test system: acylamino acid racemase; experiment: Substrate specificity of acylamino acid racemase (enzyme activity determination coupled with aminoacylase); type: biochemical, Streptomyces sp. Y-53; conditions: amount of produced methionine taken as 100, free amino acids checked by amino acid oxidase and HPLC; for Relative Activity (L-form substrate): D-aminoacylase of Y-53 strain coupled; for Relative Activity (D-form substrate): L-aminoacylase coupled
Method: Note that the relative activities in Table 3, where N^α -acylamino acids were used as substrates, were determined by the method of enzyme activity determination described in the term .circle.3 , with the values representing the found amount (mM) of the produced α-amino acids corresponding to respective substrates as calculated on the basis of the amount of produced methionine taken as 100. When the substrate was an L-N^α -acylamino acid, D-aminoacylase as produced by Y-53 strain was used in place of L-aminoacylase.

[2] = test system: acylamino acid racemase; experiment: Influences of metal ions on enzyme activities; type: biochemical, Streptomyces sp. Y-53; conditions: for Relative enzyme activity, Additive Concentration 1 mM / Relative enzyme activity, Additive Concentration 10 mM: no additives taken as 100, cobalt chloride excluded; for Relative enzyme activity, Additive Concentration 1 mM: final concentration 1 mM; for Relative enzyme activity, Additive Concentration 10 mM: final concentration 10 mM
Method: Enzyme activities are determined by means of a mixed reaction system comprising 50 μl of a solution of the enzyme, 40 μl of a solution of the substrate, 10 μl of an L-aminoacylase solution and 400 μl of a 50 mM Tris-HCl buffer (pH 7.5 ). As the enzyme solution, a solution prepared by dissolving an acylamino acid racemase standard sample in a Tris-HCl buffer (pH 7.5 ) to 1 to 0.2 unit/ml was used; as the L-aminoacylase solution, a solution prepared by dissolving an L-aminoacylase standard sample (a commercially available product such as that produced by Sigma Co. may be used, but the L-aminoacylase extracted and purified from Y-53 strain was used in the present invention) in a Tris-HCl buffer (pH 7.5) to 40 to 8 units/ml.
The above solutions are mixed together by the sequential addition of the Tris-HCl buffer, substrate solution, L-aminoacylase solution and enzyme solution in this order, and reaction is initiated at 30° C. simultaneously with the addition of the enzyme solution.
For the determination of enzyme activities, the amount of methionine produced in the reaction system is determined by high performance liquid chromatography, and the enzyme activity corresponding to the production of 1 μmol/min. methionine is expressed as 1 unit. When a ymM concentration of methionine has been produced in the reaction system during a reaction time of x minutes, the activity (αunit) of the enzyme in 50 μl solution is calculated by the following equation: [formula]
In Table 4, the enzyme activities are presented in relative activities on the basis of the values obtained in the case of no additives as taken as 100.

[3] = concentration not singled out (1 mM and 10 mM examined)

| Structure (SMILES) | Relative enzyme activity, Additive Concentration 1 mM [2] | Relative enzyme activity, Additive Concentration 10 mM [2] | Relative Activity (D-form substrate) [1] | other results |
| --- | --- | --- | --- | --- |
| CC(=O)N[C@@H](C)C(=O)O [N-acetyl-L-alanine] |  |  |  | Relative Activity (L-form substrate) [1]: 21 |
| O=C(O)CN(CCN(CC(=O)O)CC(=O)O)CC(=O)O [EDTA, reference compound] | 68 | 0 |  | Effect on enzyme activity (in words) ([2]; at 10 mM): noticeable inhibitory effect |
| O.O.O.O.O.O.[Cl][Cr]([Cl])[Cl] [CrCl3 .6H2 O] | 96 | 100 |  |  |
| CC(C)C[C@H](N)C(=O)O [L-leucine] |  |  |  | Relative Activity (L-form substrate) [1]: 0 |
| O=C(CCl)N[C@H](Cc1ccccc1)C(=O)O [N-chloroacetyl-D-phenylalanine] |  |  | 90 |  |
| [Cl][Pb][Cl] [PbCl2] | 78 | 100 |  |  |
| CC(C)[C@@H](N)C(=O)O [D-valine] |  |  | 0 |  |
| C[C@@H](NC(=O)c1ccccc1)C(=O)O [N-benzoyl-D-alanine] |  |  | 14 |  |
| C[C@H](N)C(=O)O [L-alanine] |  |  |  | Relative Activity (L-form substrate) [1]: 0 |
| CC(=O)N[C@@H](Cc1ccccc1)C(=O)O [N-acetyl-L-phenylalanine] |  |  |  | Relative Activity (L-form substrate) [1]: 84 |
| C[C@@H](N)C(=O)O [D-alanine] |  |  | 0 |  |
| O.O.O.O.O.O.O.O=S(=O)([O-])[O-].[Fe+2] [FeSO4 .7H2 O] | 100 | 560 |  |  |
| O.O.O.O.O.O.O.O.O.O.O.O.O.O.O.O.O=S(=O)([O-])[O-].O=S(=O)([O-])[O-].O=S(=O)([O-])[O-].[Al+3].[Al+3] [Al2 (SO4)3 .16H2 O] | 79 | 0 |  | Effect on enzyme activity (in words) ([2]; at 10 mM): inhibit the enzyme activity |
| O.O.O.O.O.O.[Cl-].[Cl-].[Sr+2] [SrCl2 .6H2 O] | 94 | 110 |  |  |
| [Ca+2].[Cl-].[Cl-] [CaCl2] | 95 | 100 |  |  |
| CSCC[C@H](NC=O)C(=O)O [N-formyl-L-methionine] |  |  |  | Relative Activity (L-form substrate) [1]: 63 |
| N[C@@H](Cc1c[nH]c2ccccc12)C(=O)O [L-tryptophan] |  |  |  | Relative Activity (L-form substrate) [1]: 0 |
| O.O.O.O.O.O.O=S(=O)([O-])[O-].[Ni+2] [NiSO4 .6H2 O] | 460 | 0 |  |  |
| N[C@H](Cc1ccccc1)C(=O)O [D-phenylalanine] |  |  | 0 |  |
| [Cl-].[K+] [KCl] | 110 | 130 |  |  |
| O.O.O.O.O.O.O.O=S(=O)([O-])[O-].[Mg+2] [MgSO4 .7H2 O] | 890 |  |  | Effect on enzyme activity (in words) [2, 3]: the activating effect is greater at 10 mM than at 1 mM |
| CC(=O)N[C@H](CC(C)C)C(=O)O [N-acetyl-D-leucine] |  |  | 37 |  |
| O.O.O.O.O.O.O.O=S(=O)([O-])[O-].[Zn+2] [ZnSO4 .7H2 O] | 810 | 80 |  |  |
| CC(=O)N[C@H](C(=O)O)C(C)C [N-acetyl-L-valine] |  |  |  | Relative Activity (L-form substrate) [1]: 19 |
| CC(C)[C@H](NC(=O)CCl)C(=O)O [N-chloroacetyl-L-valine] |  |  |  | Relative Activity (L-form substrate) [1]: 105 |
| N[C@@H](Cc1ccccc1)C(=O)O [L-phenylalanine] |  |  |  | Relative Activity (L-form substrate) [1]: 0 |

| Structure (SMILES) | Relative enzyme activity, Additive Concentration 1 mM [2] | Relative enzyme activity, Additive Concentration 10 mM [2] | Relative Activity (D-form substrate) [1] | other results |
| --- | --- | --- | --- | --- |
| [Cl-].[Li+] [LiCl] | 100 | 120 |  |  |
| O=C(CCl)N[C@@H](Cc1ccccc1)C(=O)O [N-chloroacetyl-L-phenylalanine] |  |  |  | Relative Activity (L-form substrate) [1]: 112 |
| CC(C)[C@H](N)C(=O)O [L-valine] |  |  |  | Relative Activity (L-form substrate) [1]: 0 |
| CSCC[C@@H](NC=O)C(=O)O [N-formyl-D-methionine] |  |  | 40 |  |
| O.O.O.O.O.O=S(=O)([O-])[O-].[Cu+2] [CuSO4 .5H2 O] | 0 | 0 |  | Effect on enzyme activity (in words) [2, 3]: noticeable inhibitory effect |
| CSCC[C@H](N)C(=O)O [L-methionine] |  |  |  | Relative Activity (L-form substrate) [1]: 0 |
| CSCC[C@@H](NC(C)=O)C(=O)O [N-acetyl-D-methionine] |  |  | 100 |  |
| [Cl-].[Na+] [NaCl] | 100 | 130 |  |  |
| O.O.[Ba+2].[Cl-].[Cl-] [BaCl2 .2H2 O] | 85 | 120 |  |  |
| CC(=O)N[C@@H](CC(C)C)C(=O)O [N-acetyl-L-leucine] |  |  |  | Relative Activity (L-form substrate) [1]: 74 |
| N[C@H](Cc1c[nH]c2ccccc12)C(=O)O [D-tryptophan] |  |  | 0 |  |
| O.O.[Na+].[Na+].[O]=[Mo](=[O])([O-])[O-] [NaMoO4 .2H2 O] | 96 | 0 |  | Effect on enzyme activity (in words) ([2]; at 10 mM): inhibit the enzyme activity |
| CC(=O)N[C@H](C)C(=O)O [N-acetyl-D-alanine] |  |  | 33 |  |
| CC(=O)N[C@H](Cc1ccccc1)C(=O)O [N-acetyl-D-phenylalanine] |  |  | 64 |  |
| CC(=O)N[C@H](Cc1c[nH]c2ccccc12)C(=O)O [N-acetyl-D-tryptophan] |  |  | 10 |  |
| O.O.O.O.O.O.O.O=S(=O)([O-])[O-].[Mn+2] [MnSO4 .7H2 O] | 780 |  |  |  |
| O=S(=O)([O-])[O-].[Sn+2] [SnSO4] | 92 | 100 |  |  |
| CC(C)C[C@@H](N)C(=O)O [D-leucine] |  |  | 0 |  |
| O.O.O.O.O.O.[Cl-].[Cl-].[Co+2] [CoCl2 .6H2 O] |  | 140 |  | Effect on enzyme activity (in words) ([2]; at 10 mM): hardly activate the enzyme; Effect on enzyme activity (in words) ([2]; low concentrations (around 1 mM)): noticeable activating effect |
| CC(=O)N[C@@H](C(=O)O)C(C)C [N-acetyl-D-valine] |  |  | 35 |  |
| CSCC[C@@H](N)C(=O)O [D-methionine] |  |  | 0 |  |
| CC[C@H](C)[C@@H](NC(C)=O)C(=O)O [N-acetyl-D-allo-isoleucine] |  |  | 33 |  |
| CSCC[C@H](NC(C)=O)C(=O)O [N-acetyl-L-methionine] |  |  |  | Relative Activity (L-form substrate) [1]: 100 |
| CC(C)[C@@H](NC(=O)CCl)C(=O)O [N-chloroacetyl-D-valine] |  |  | 80 |  |
| CC(=O)N[C@@H](Cc1c[nH]c2ccccc12)C(=O)O [N-acetyl-L-tryptophan] |  |  |  | Relative Activity (L-form substrate) [1]: 8 |

Source: patent US4981799A, “Acylamino acid racemase, production and use thereof” (priority 1987, dated 1991)
